For experiment [1], the target named is T1, KRAS G12C (Homo sapiens, UniProt P01116, G12C). The experiment in a line: KRAS G12C cellular target engagement assay (SW1573 cells). The arrangement: host or cells: SW1573. As to conditions: 17 hours, read-out: TE50 (the source's name). Type of experiment: cell-based. As for the experimental part: SW1573 cells (ATCC CRL-2170) were cultured in RPMI 1640 (Gibco A1049101), supplemented with 10% Heat-inactivated FBS (Gibco Cat. #A38400-01) and 1% Penicillin/Streptomycin (Gibco Cat. #15140-122) in an incubator set at 37° C. and 5% CO2. Cells were seeded at 100,000 cells/ml in 1 ml of complete media in a 24-well, tissue culture-treated plate (Falcon 353226) and incubated overnight. Cells were treated with increasing concentrations of compound and let incubate at 37C and 5% CO2 for 17 hours, after which media was aspirated and cells were lysed in 75 uL RIPA Lysis and Extraction Buffer (Thermo 89901) supplemented with 5 mM MgCl2, Protease and Phosphatase inhibitor cocktail (Thermo 1861281), and Universal Nuclease (Thermo 88700). Plates with RIPA were shaken at 4° C. at 600 rpm for 15 min. After shaking samples, they were collected and spun down at 21,000 g for 15 min at 4° C. Following centrifugation, ˜10 ug of lysate was added to Laemmli Sample Buffer (Bio-Rad 1610747) plus 10% beta-mercaptoethanol, boiled for 15 minutes at 65° C. and loaded onto 12% Mini-PROTEAN TGX™ Precast Protein Gels (Bio-Rad). Protein was transferred to a nitrocellulose membrane (Thermo LC2000) using the iBlot 2 Dry Blotting System (Thermo). After transfer, membranes were washed in 1× TBST (Bioland Scientific LLC TBST0103) 3× for 5 min. Following the wash, blocking buffer (Rockland MB-070) was added for 1 hour at room temperature. Primary antibodies against KRAS (LifeSpan Bio LS-C175665) and actin (Cell Signaling Technology 8457) were added overnight at 4° C. Membranes were then washed again 3× for 5 min in 1× TBST. Secondary antibodies (LI-COR 926-68072 and 926-68073) were added and shaken for 1 hr at room temperature. Membranes were then washed 3× for 5 min in 1×TBST and developed. Membranes were placed on an Odyssey imager (LI-COR).
Target sequence in this assay (P01116 1-188 isoform P01116-2 G12C): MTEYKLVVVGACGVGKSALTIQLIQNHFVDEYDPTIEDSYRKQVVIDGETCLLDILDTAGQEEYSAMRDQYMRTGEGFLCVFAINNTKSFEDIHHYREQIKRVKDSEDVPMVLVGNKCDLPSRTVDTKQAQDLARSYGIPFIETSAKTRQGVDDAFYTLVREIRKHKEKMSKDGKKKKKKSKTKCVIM

Experiment [2] concerns the target T1, KRAS G12C. The experiment in a line: KRAS G12C nucleotide exchange assay (SOS1-mediated, HTRF). Also on record: GST-tagged KRAS G12C (amino acids 2-169). Type of experiment: biochemical. As to conditions: 1 hr pre-incubation. As for the experimental part:
KRAS target engagement (IC50 determination) was performed using a KRAS G12C nucleotide exchange assay. Specifically, compounds were tested against KRAS G12C in 10-point concentration IC50 mode with 3-fold serial dilution at a starting concentration of 10 μM. ARS1620 was used as a control.
Briefly, GST-tagged KRAS G12C (amino acids 2-169) was mixed with anti-GST Tb antibody (1.5× solution) and 10 μL was delivered to reaction wells. Compounds were delivered using an acoustic dispenser (Echo, Labcyte) and pre-incubated with protein for 1 hr at RT. KRAS/anti-GST Tb Ab/compound mixture was incubated for 1 hour at room temperature. A 3× solution of SOS1 (amino acids 564-1049) and GTP-DY-647P1 (GTP*) was prepared in reaction buffer. A 5 μL aliquot of SOS1/GTP* solution was added to reaction wells to initiate the exchange reaction. No-SOS1 reaction or max compound concentration was used as blank. The final concentrations of KRAS G12C, SOS1, and GTP* were 30 nM, 20 nM, and 0.15 μM, respectively. SOS1 mediated exchange of GDP to GTP-DY-647P was measured using HTRF (Ex/Em=(320-75/665-7.5; 615-8.5)) using an Envision Plate Reader (Perkin Elmer). IC50 determination was performed using a Sigmoidal dose response (variable slope) equation.
Target sequence in this assay (P01116 2-169 isoform P01116-2 G12C): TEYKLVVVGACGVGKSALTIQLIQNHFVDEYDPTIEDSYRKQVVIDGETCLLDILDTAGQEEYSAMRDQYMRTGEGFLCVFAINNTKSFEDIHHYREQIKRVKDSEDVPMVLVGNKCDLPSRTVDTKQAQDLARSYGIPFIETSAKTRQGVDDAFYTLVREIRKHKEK

SMILES strings stand for the structures. A value given as a limit tells only on which side of the number the result lay.

With `C=C(COc1ccc(CN2C(=O)CCC(N3Cc4cc(CNC(=O)Nc5ccc(C)c(Cl)c5)ccc4C3=O)C2=O)cc1)C(=O)N1CCN(c2nc(OC[C@H]3CCCN3C)nc3c2CCN(c2cccc4cccc(Cl)c24)C3)C[C@@H]1CC#N` (stereo in doubt) [Compound I-44], the EC50 in experiment [1] lay within 250 to 5000 nM. This molecule registered a half-maximal inhibitory concentration (IC50) in experiment [2] of 100 to 5000 nM.

Turning to `C=C(COc1cc(Cl)cc(NC(=O)NCc2ccc3c(c2)CN(C2CCC(=O)NC2=O)C3=O)c1)C(=O)N1CCN(c2nc(OC[C@@H]3CCCN3C)nc3c2CCN(c2cccc4cccc(Cl)c24)C3)C[C@@H]1CC#N` (some centres unmarked) [Compound I-35], in experiment [1], the EC50 is 250 to 5000 nM. Also, in experiment [2], the IC50 is less than 100 nM.

Take `C=C(COc1cc(Cl)c(OC)cc1NC(=O)NCc1ccc2c(c1)CN(C1CCC(=O)NC1=O)C2=O)C(=O)N1CCN(c2nc(OC[C@@H]3CCCN3C)nc3c2CCN(c2cccc4cccc(Cl)c24)C3)C[C@@H]1CC#N` (some centres unmarked) [Compound I-46]: the EC50 in experiment [1] lay in the range of 250 to 5000 nM. Besides, the 50% inhibitory concentration (IC50) in experiment [2] was less than 100 nM.

Regarding `C=C(COc1cc(NC(=O)NCc2ccc3c(c2)CN(C2CCC(=O)NC2=O)C3=O)cc(C(F)(F)F)c1)C(=O)N1CCN(c2nc(OC[C@@H]3CCCN3C)nc3c2CCN(c2cccc4cccc(Cl)c24)C3)C[C@@H]1CC#N` (some centres unmarked) [Compound I-48], the EC50 in experiment [1] lay within 250 to 5000 nM. In addition, the IC50 in experiment [2] is less than 100 nM.

With `C=C(COc1cccc(NC(=O)NCc2ccc3c(c2)CN(C2CCC(=O)NC2=O)C3=O)c1)C(=O)N1CCN(c2nc(OC[C@@H]3CCCN3C)nc3c2CCN(c2cccc4cccc(Cl)c24)C3)C[C@@H]1CC#N` (some centres unmarked) [Compound I-49], the EC50 in experiment [1] was less than 250 nM. Further, the IC50 in experiment [2] was less than 100 nM.

For `C=C(COc1cc(NC(=O)NCc2ccc3c(c2)CN(C2CCC(=O)NC2=O)C3=O)cc(OC)c1)C(=O)N1CCN(c2nc(OC[C@@H]3CCCN3C)nc3c2CCN(c2cccc4cccc(Cl)c24)C3)C[C@@H]1CC#N` (some centres unmarked) [Compound I-50], the EC50 in experiment [1] was in the range of 250 to 5000 nM. The IC50 in experiment [2] was less than 100 nM.

For the molecule `C=C(COc1ccc(Cl)cc1NC(=O)NCc1ccc2c(c1)CN(C1CCC(=O)NC1=O)C2=O)C(=O)N1CCN(c2nc(OC[C@@H]3CCCN3C)nc3c2CCN(c2cccc4cccc(Cl)c24)C3)C[C@@H]1CC#N` (some centres unmarked) [Compound I-52], the EC50 in experiment [1] fell in the range of 250 to 5000 nM. Besides, the half-inhibitory concentration (IC50) in experiment [2] is less than 100 nM.

As for `C=C(COc1cc(Cl)cc(NC(=O)NCc2ccc3c(c2)CN(C2CCC(=O)NC2=O)C3=O)c1)C(=O)N1CC2(CC(n3nc(-c4ccc5c(cnn5C)c4)c(-c4c(Cl)c(C)cc5[nH]ncc45)c3C)C2)C1` (centres unmarked) [Compound I-56], the EC50 in experiment [1] is 5000 to 10000 nM. This molecule gave an IC50 in experiment [2] of 100 to 5000 nM.

`C=C(CN(C)c1cccc(NC(=O)NCc2ccc3c(c2)CN(C2CCC(=O)NC2=O)C3=O)c1)C(=O)N1CCN(c2nc(OC[C@@H]3CCCN3C)nc3c2CCN(c2cccc4cccc(Cl)c24)C3)C[C@@H]1CC#N` (some centres unmarked) [Compound I-58]: in experiment [1], the EC50 was 5000 to 10000 nM. The IC50 in experiment [2] was 5000 to 10000 nM.

As to `C=C(COc1cc(F)c(F)cc1NC(=O)NCc1ccc2c(c1)CN(C1CCC(=O)NC1=O)C2=O)C(=O)N1CCN(c2nc(OC[C@@H]3CCCN3C)nc3c2CCN(c2cccc4cccc(Cl)c24)C3)C[C@@H]1CC#N` (some centres unmarked) [Compound I-62], the EC50 in experiment [1] is 250 to 5000 nM. In experiment [2], this molecule displayed a 50% inhibitory concentration (IC50) of less than 100 nM.

In the case of `C=C(COc1ccccc1CNC(=O)NCc1ccc2c(c1)CN(C1CCC(=O)NC1=O)C2=O)C(=O)N1CCN(c2nc(OC[C@@H]3CCCN3C)nc3c2CCN(c2cccc4cccc(Cl)c24)C3)C[C@@H]1CC#N` (some centres unmarked) [Compound I-63], the EC50 in experiment [1] was 250 to 5000 nM. This molecule also yielded an IC50 in experiment [2] of less than 100 nM.

Regarding `C=C(COc1cc(Cl)cc(NC(=O)NCc2cc3c(cc2F)C(=O)N(C2CCC(=O)NC2=O)C3)c1)C(=O)N1CCN(c2nc(OC[C@@H]3CCCN3C)nc3c2CCN(c2cccc4cccc(Cl)c24)C3)C[C@@H]1CC#N` (some centres unmarked) [Compound I-64], the EC50 in experiment [1] lay in the range of 250 to 5000 nM. This molecule registered an IC50 in experiment [2] of less than 100 nM.

For the molecule `C=C(COc1cc(Cl)c(OC)cc1NC(=O)NCc1ccc2c(c1)CN(C1CCC(=O)NC1=O)C2=O)C(=O)N1CC2(CC(n3nc(-c4ccc5c(cnn5C)c4)c(-c4c(Cl)c(C)cc5[nH]ncc45)c3C)C2)C1` (centres unmarked) [Compound I-66], the EC50 in experiment [1] is 250 to 5000 nM. The molecule also showed an IC50 in experiment [2] of 100 to 5000 nM.

`C=C(COc1cc(NC(=O)NCc2ccc3c(c2)CN(C2CCC(=O)NC2=O)C3=O)cc(OC)c1)C(=O)N1CC2(CC(n3nc(-c4ccc5c(cnn5C)c4)c(-c4c(Cl)c(C)cc5[nH]ncc45)c3C)C2)C1` (centres unmarked) [Compound I-67]: the EC50 in experiment [1] lay in the range of 5000 to 10000 nM. The molecule further displayed an IC50 in experiment [2] of 100 to 5000 nM.

Regarding `C=C(COc1cc(NC(=O)NCc2ccc3c(c2F)CN(C2CCC(=O)NC2=O)C3=O)cc(C(F)(F)F)c1)C(=O)N1CC2(CC(n3nc(-c4ccc5c(cnn5C)c4)c(-c4c(Cl)c(C)cc5[nH]ncc45)c3C)C2)C1` (centres unmarked) [Compound I-68], the EC50 in experiment [1] is 250 to 5000 nM. In experiment [2], this molecule showed an IC50 of 100 to 5000 nM.

Regarding `C=C(COC(=O)c1c(C)csc1NC(=O)NCc1ccc2c(c1)CN(C1CCC(=O)NC1=O)C2=O)C(=O)N1CCN(c2nc(OC[C@@H]3CCCN3C)nc3c2CCN(c2cccc4cccc(Cl)c24)C3)C[C@@H]1CC#N` (stereo partly drawn) [Compound I-72, 2-[(2S)-4-[7-(8-chloro-1-naphthyl)-2-[[(2S)-1-methylpyrrolidin-2-yl]methoxy]-6,8-dihydro-5H-pyrido[3,4-d]pyrimidin-4-yl]-2-(cyanomethyl)piperazine-1-carbonyl]allyl 2-[[2-(2,6-dioxo-3-piperidyl)-1-oxo-isoindolin-5-yl]methylcarbamoylamino]-4-methyl-thiophene-3-carboxylate], in experiment [1], the EC50 fell in the range of 5000 to 10000 nM. Moreover, the IC50 in experiment [2] was less than 100 nM.

For `C=C(COC(=O)NCc1cc(Cl)cc(NC(=O)NCc2ccc3c(c2)CN(C2CCC(=O)NC2=O)C3=O)c1)C(=O)N1CCN(c2nc(OC[C@@H]3CCCN3C)nc3c2CCN(c2cccc4cccc(Cl)c24)C3)C[C@@H]1CC#N` (some centres unmarked) [Compound I-73], the EC50 in experiment [1] is less than 250 nM. In experiment [2], this molecule showed a 50% inhibitory concentration (IC50) of less than 100 nM.

`C=C(COC(=O)NCCCc1cc(Cl)cc(NC(=O)NCc2ccc3c(c2)CN(C2CCC(=O)NC2=O)C3=O)c1)C(=O)N1CCN(c2nc(OC[C@@H]3CCCN3C)nc3c2CCN(c2cccc4cccc(Cl)c24)C3)C[C@@H]1CC#N` (some centres unmarked) [Compound I-74]: the EC50 in experiment [1] was less than 250 nM. Further, the IC50 in experiment [2] is less than 100 nM.

Take `C=C(COc1cc(NC(=O)NCc2ccc3c(c2)CN(C2CCC(=O)NC2=O)C3=O)cc(F)c1F)C(=O)N1CCN(c2nc(OC[C@@H]3CCCN3C)nc3c2CCN(c2cccc4cccc(Cl)c24)C3)C[C@@H]1CC#N` (some centres unmarked) [Compound I-75]: the EC50 in experiment [1] was 5000 to 10000 nM. In experiment [2], this molecule came in with an IC50 of less than 100 nM.

With `C=C(COc1ccc(Cl)cc1NC(=O)NCc1ccc2c(c1)CN(C1CCC(=O)NC1=O)C2=O)C(=O)N1CC2(CC(n3nc(-c4ccc5c(cnn5C)c4)c(-c4c(Cl)c(C)cc5[nH]ncc45)c3C)C2)C1` (centres unmarked) [Compound I-76], the EC50 in experiment [1] was 250 to 5000 nM. In experiment [2], the IC50 was in the range of 100 to 5000 nM.

Turning to `C=C(COc1cc(NC(=O)NCc2ccc3c(c2)CN(C2CCC(=O)NC2=O)C3=O)cc(C(F)(F)F)c1)C(=O)N1CC2(CC(n3nc(-c4ccc5c(cnn5C)c4)c(-c4c(Cl)c(C)cc5[nH]ncc45)c3C)C2)C1` (centres unmarked) [Compound I-77], the EC50 in experiment [1] is 250 to 5000 nM. The molecule further registered a 50% inhibitory concentration (IC50) in experiment [2] of 100 to 5000 nM.

With `C=C(COC(=O)NCCc1ccc(Cl)cc1NC(=O)NCc1ccc2c(c1)CN(C1CCC(=O)NC1=O)C2=O)C(=O)N1CCN(c2nc(OC[C@@H]3CCCN3C)nc3c2CCN(c2cccc4cccc(Cl)c24)C3)C[C@@H]1CC#N` (some centres unmarked) [Compound I-78], the EC50 in experiment [1] is less than 250 nM. In addition, in experiment [2], the IC50 was less than 100 nM.

(Values after US20240408093A1, “HETEROBIFUNCTIONAL COMPOUNDS AND THEIR USE IN TREATING DISEASE” (HALDA THERAPEUTICS OPCO, INC., priority 2022, published 2024).)
